Assay results: ChEMBL document CHEMBL1152560, “Substituted 2-arylbenzothiazoles as kinase inhibitors: hit-to-lead optimization” (Bioorg Med Chem, 2009)

How the values were obtained:
[1] = target: T1, G protein-coupled receptor kinase 3 (Homo sapiens) (UniProt P35626); assay: Residual activity of GRK3 at 0.1 uM by microplate scintillation counting
T1 sequence (whole entry): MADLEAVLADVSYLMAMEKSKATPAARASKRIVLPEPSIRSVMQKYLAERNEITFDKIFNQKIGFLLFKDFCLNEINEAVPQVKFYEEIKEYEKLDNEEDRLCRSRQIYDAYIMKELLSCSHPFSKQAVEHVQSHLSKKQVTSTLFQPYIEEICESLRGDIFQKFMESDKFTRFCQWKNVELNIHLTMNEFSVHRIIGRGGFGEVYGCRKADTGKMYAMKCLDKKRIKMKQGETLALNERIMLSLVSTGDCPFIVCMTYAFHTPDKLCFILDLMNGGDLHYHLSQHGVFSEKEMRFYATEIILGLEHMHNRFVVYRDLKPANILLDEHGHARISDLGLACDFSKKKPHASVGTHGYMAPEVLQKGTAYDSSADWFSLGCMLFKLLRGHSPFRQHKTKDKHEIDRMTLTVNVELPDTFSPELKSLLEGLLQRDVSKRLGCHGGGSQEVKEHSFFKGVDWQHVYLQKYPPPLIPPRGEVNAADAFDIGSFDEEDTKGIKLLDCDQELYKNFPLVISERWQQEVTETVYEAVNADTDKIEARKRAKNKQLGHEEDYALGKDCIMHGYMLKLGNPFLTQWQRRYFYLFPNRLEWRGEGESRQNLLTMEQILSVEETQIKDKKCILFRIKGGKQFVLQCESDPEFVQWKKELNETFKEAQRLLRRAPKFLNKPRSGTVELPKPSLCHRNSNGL

[2] = target: T2, Ephrin type-A receptor 8 (Homo sapiens) (UniProt P29322); assay: Residual activity of EPHA8 at 1 uM by microplate scintillation counting
T2 sequence (whole entry): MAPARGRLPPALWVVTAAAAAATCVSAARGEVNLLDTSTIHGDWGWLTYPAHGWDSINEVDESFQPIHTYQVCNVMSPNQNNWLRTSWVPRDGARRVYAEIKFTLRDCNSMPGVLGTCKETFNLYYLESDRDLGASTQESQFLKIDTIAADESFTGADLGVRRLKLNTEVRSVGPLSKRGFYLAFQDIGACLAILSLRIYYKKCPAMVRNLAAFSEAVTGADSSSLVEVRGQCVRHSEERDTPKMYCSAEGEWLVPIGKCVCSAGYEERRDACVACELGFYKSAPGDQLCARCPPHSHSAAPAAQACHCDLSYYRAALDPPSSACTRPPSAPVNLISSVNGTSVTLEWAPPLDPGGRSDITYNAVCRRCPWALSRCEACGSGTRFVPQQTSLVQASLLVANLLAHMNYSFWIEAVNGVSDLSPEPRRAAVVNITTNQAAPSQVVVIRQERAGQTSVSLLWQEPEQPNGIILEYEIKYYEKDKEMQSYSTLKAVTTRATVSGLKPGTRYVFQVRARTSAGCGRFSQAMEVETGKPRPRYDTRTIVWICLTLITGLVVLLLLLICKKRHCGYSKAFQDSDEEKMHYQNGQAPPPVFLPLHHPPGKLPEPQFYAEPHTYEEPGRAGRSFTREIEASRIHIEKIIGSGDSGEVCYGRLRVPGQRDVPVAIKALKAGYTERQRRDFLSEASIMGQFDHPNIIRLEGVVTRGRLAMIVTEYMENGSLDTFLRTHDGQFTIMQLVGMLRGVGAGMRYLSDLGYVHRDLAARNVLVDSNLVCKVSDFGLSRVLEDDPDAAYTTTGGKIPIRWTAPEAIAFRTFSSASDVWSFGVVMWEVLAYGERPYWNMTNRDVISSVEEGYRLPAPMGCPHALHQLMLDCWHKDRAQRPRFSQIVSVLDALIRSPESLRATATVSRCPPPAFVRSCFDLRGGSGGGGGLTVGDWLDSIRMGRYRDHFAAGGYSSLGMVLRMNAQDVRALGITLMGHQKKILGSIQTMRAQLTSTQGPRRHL

[3] = target: T3, cAMP-dependent protein kinase catalytic subunit PRKX (Homo sapiens) (UniProt P51817); assay: Residual activity of PRKX at 0.1 uM by microplate scintillation counting
T3 sequence (whole entry): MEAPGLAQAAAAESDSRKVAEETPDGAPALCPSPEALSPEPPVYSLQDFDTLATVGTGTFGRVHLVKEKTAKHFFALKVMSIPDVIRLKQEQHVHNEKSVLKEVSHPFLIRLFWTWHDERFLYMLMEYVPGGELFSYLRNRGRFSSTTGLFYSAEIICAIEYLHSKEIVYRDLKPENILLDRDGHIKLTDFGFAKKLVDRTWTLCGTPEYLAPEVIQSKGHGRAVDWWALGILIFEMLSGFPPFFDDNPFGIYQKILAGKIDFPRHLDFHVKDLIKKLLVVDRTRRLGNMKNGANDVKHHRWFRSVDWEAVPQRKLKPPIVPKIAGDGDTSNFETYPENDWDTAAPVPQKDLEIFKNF

[4] = target: Insulin receptor (Homo sapiens) (UniProt P06213); assay: Residual activity of INSR at 10 uM by microplate scintillation counting
Chain of Insulin receptor (Homo sapiens) (P06213 28-758 limits assumed): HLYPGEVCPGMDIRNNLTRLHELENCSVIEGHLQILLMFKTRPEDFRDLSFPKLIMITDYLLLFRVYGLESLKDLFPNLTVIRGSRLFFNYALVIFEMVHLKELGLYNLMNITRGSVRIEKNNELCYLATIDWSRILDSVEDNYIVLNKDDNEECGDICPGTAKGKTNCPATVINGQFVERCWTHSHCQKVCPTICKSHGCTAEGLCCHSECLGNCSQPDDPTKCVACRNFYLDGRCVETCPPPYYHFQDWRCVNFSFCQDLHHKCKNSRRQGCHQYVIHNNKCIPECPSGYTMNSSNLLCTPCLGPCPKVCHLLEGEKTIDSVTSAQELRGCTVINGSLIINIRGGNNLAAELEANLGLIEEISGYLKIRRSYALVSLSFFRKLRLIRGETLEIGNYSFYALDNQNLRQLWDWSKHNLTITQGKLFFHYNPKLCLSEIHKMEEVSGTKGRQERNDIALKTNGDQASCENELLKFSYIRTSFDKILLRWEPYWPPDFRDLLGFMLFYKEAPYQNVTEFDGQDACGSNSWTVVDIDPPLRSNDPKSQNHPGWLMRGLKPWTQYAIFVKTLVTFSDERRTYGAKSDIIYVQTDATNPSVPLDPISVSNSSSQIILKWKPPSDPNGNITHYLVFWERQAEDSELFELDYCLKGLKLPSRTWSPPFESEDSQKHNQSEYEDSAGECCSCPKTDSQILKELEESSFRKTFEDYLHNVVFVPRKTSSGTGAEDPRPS
Chain of Insulin receptor (Homo sapiens) (P06213 763-1382 limits assumed): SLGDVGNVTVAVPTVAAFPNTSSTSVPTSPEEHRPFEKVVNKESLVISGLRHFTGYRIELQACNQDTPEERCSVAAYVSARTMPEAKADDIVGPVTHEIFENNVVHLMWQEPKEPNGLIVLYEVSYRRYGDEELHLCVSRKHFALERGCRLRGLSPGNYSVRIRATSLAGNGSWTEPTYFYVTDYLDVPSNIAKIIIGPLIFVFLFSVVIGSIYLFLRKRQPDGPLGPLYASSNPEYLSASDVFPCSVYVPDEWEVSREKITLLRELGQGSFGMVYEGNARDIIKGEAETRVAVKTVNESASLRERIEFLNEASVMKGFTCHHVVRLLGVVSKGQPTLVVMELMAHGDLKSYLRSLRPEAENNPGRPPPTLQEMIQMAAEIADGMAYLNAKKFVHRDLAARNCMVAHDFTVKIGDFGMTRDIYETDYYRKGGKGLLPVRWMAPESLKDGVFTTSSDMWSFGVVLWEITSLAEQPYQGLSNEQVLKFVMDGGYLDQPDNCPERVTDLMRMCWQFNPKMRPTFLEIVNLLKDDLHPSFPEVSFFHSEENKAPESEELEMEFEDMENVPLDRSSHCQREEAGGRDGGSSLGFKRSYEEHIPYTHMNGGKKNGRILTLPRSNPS

[5] = target: T4, Calcium/calmodulin-dependent protein kinase type IV (Homo sapiens) (UniProt Q16566); assay: Residual activity of CAMK4 at 10 uM by microplate scintillation counting
T4 sequence (whole entry): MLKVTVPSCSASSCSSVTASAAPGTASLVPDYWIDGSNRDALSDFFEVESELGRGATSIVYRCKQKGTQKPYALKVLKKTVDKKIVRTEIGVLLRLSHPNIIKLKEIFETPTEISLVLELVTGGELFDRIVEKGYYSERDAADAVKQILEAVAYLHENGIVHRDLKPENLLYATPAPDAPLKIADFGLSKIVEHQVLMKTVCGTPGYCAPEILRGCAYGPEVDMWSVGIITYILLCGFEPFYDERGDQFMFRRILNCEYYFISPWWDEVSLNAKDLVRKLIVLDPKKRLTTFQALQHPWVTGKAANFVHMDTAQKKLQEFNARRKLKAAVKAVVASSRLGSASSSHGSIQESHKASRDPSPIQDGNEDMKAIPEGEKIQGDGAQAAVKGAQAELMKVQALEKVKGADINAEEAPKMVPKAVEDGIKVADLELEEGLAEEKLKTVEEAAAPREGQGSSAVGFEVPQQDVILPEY

`COc1cc2c(Oc3ccc(-c4nc5ccccc5s4)cc3)ncnc2cc1OCCCN1CCN(C)CC1` showed a residual activity [1] of 94%, a residual activity [2] of 123% and a residual activity [3] of 90%. The residual activity [4] was 33% and the residual activity [5] was 227%.
`COc1cc2c(Oc3ccc(-c4nc5ccccc5s4)cc3)ncnc2cc1OCCCN1CCCC1` was tested, and the residual activity [1] was 86%, the residual activity [2] was 147% and the residual activity [3] was 86%. It also gave a residual activity [4] of 59% and a residual activity [5] of 88%.
`COc1cc2c(Oc3ccc(-c4nc5ccccc5s4)cc3F)ncnc2cc1OCCCN1CCN(C)CC1` gave a residual activity [1] of 95%, a residual activity [2] of 149% and a residual activity [3] of 93%. It also gave a residual activity [4] of 29% and a residual activity [5] of 211%.
